In patent US7268146B2, “Ring fused pyrazole derivatives as CRF antagonists” (Palo Alto LLC, priority 2001, dated 2007):
Structures can show the parent of a compound that is named as a salt.

| SMILES | melting point [°C] |
| --- | --- |
| Cc1cc(C)c(N2CCCc3c2nn(C)c3C2(O)CCOCC2)c(C)c1 [Example 5l, 4-[2-Methyl-7-(2,4,6-trimethylphenyl)-4,5,6,7-tetrahydro-2H-pyrazolo[3,4-b]pyridin-3-yl]tetrahydropyran-4-ol] | 193 to 195.1 |
| CCCC(O)(CCC)c1c2c(nn1C)N(c1c(C)cc(C)cc1C)CCC2 [Example 5b, 4-[2-Methyl-7-(2,4,6-trimethylphenyl)-4,5,6,7-tetrahydro-2H-pyrazolo[3,4-b]pyridin-3-yl]heptan-4-ol] | 126 to 127.9 |
| CCCC(O)(CCC)c1c2c(nn1C)N(c1c(C)cc(C)cc1Cl)CCC2 [Example 5a, 4-[7-(2-Chloro-4,6-dimethylphenyl)-2-methyl-4,5,6,7-tetrahydro-2H-pyrazolo[3,4-b]pyridin-3-yl]heptan-4-ol] | 129 to 130 |
| Cc1cc(C)c(N2CCCc3c2nn(C)c3Br)c(C)c1 [Example 3, 3-Bromo-2-methyl-7-(2,4,6-trimethyl-phenyl)-4,5,6,7-tetrahydro-2H-pyrazolo[3,4-b]pyridine] | 94.6 to 97.9 |
| COCCC(O)(COC)c1c2c(nn1C)N(c1c(C)cc(C)cc1C)CCC2 (stereo not drawn) [Example 5g, 1,4-Dimethoxy-2-[2-methyl-7-(2,4,6-trimethylphenyl)-4,5,6,7-tetrahydro-2H-pyrazolo[3,4-b]pyridin-3-yl]butan-2-ol] | 107.9 to 110.9 |
| CC/C=C(\CCC)c1c2c(nn1C)N(c1c(C)cc(C)cc1C)CCC2 [Example 6b, 2-Methyl-3-(1-propylbut-1-enyl)-7-(2,4,6-trimethylphenyl)-4,5,6,7-tetrahydro-2H-pyrazolo[3,4-b]pyridine] | 101.6 to 102.6 |
| CCCC(O)(CCC)c1c2c(nn1C)N(c1ccc(Cl)cc1Cl)CCC2 [Example 5e, 4-[7-(2,4-Dichlorophenyl)-2-methyl-4,5,6,7-tetrahydro-2H-pyrazolo[3,4-b]pyridin-3-yl]heptan-4-ol] | 121.4 to 122.6 |
| Cc1cc(C)c(N2CCCc3c2nn(C)c3CN2CCc3ccccc3C2)c(C)c1 (as salt: hydrochloride) [Example 11, 2-[2-Methyl-7-(2,4,6-trimethyl-phenyl)-4,5,6,7-tetrahydro-2H-pyrazolo[3,4-b]pyridin-3-ylmethyl]-1,2,3,4-tetrahydroisoquinolinedihydrochloride] | 236.4 to 241 |
| CCCC(O)(c1nccn1CC)c1c2c(nn1C)N(c1c(C)cc(C)cc1C)CCC2 (stereo not drawn) [Example 5k, 1-(1-Ethyl-1H-imidazol-2-yl)-1-[2-methyl-7-(2,4,6-trimethylphenyl)-4,5,6,7-tetrahydro-2H-pyrazolo[3,4-b]pyridin-3-yl]butan-1-ol] | 94.9 to 100.9 |
| CCCC(O)(CCC)c1c2c(nn1C)N(c1c(C)cc(C)cc1C)CCCC2 [Example 5d, 4-[2-Methyl-8-(2,4,6-trimethylphenyl)-2,4,5,6,7,8-hexahydro-1,2,8-triazaazulen-3-yl]heptan-4-ol] | 87 to 91.1 |
| CC/C=C(\CCC)c1c2c(nn1C)N(c1c(C)cc(C)cc1C)CCCC2 [Example 6d, 2-Methyl-3-(1-propylbut-1-enyl)-8-(2,4,6-trimethylphenyl)-2,4,5,6,7,8-hexahydro-1,2,8-triazaazulene] | 101.9 to 103.9 |
| COCC(O)(COC)c1c2c(nn1C)N(c1c(C)cc(C)cc1C)CCC2 [Example 5f, 1,3-Dimethoxy-2-[2-methyl-7-(2,4,6-trimethylphenyl)-4,5,6,7-tetrahydro-2H-pyrazolo[3,4-b]pyridin-3-yl]propan-2-ol] | 120.3 to 121.8 |
| CCC(O)c1c2c(nn1C)N(c1c(C)cc(C)cc1C)CCC2 (stereo not drawn) [Example 5j, 1-[2-Methyl-7-(2,4,6-trimethylphenyl)-4,5,6,7-tetrahydro-2H-pyrazolo[3,4-b]pyridin-3-yl]propan-1-ol] | 179.4 to 180.9 |
| CC/C=C(\CCC)c1c2c(nn1C)N(c1c(C)cc(C)cc1Cl)CCC2 [Example 6a, 7-(2-Chloro-4,6-dimethylphenyl)-2-methyl-3-(1-propylbut-1-enyl)-4,5,6,7-tetrahydro-2H-pyrazolo[3,4-b]pyridine] | 86.7 to 88.2 |
| Cc1cc(C)c(N2CCCc3cn(C)nc32)c(Cl)c1 [Example 5m, 7-(2-Chloro-4,6-dimethylphenyl)-2-methyl-4,5,6,7-tetrahydro-2H-pyrazolo[3,4-b]pyridine] | 97 to 98 |
| Cc1cc(C)c(N2CCCc3c2nn(C)c3C(O)c2ccco2)c(C)c1 (stereo not drawn) [Example 5i, Furan-2-yl[2-methyl-7-(2,4,6-trimethyl-phenyl)-4,5,6,7-tetrahydro-2H-pyrazolo[3,4-b]pyridin-3-yl]methanol] | 163.1 to 174.4 |
| CCCC(O)(c1nccs1)c1c2c(nn1C)N(c1c(C)cc(C)cc1C)CCC2 (stereo not drawn) [Example 5h, 1-[2-Methyl-7-(2,4,6-trimethylphenyl)-4,5,6,7-tetrahydro-2H-pyrazolo[3,4-b]pyridin-3-yl]-1-thiazol-2-ylbutan-1-ol] | 160.1 to 165.6 |

Results, then the compound that gave them:

| melting point [°C] | SMILES |
| --- | --- |
| 88.9 to 91.5 | CCCN(CCC)c1c2c(nn1C)N(c1c(C)cc(C)cc1C)CCC2 [Example 9ae, [2-Methyl-7-(2,4,6-trimethylphenyl)-4,5,6,7-tetrahydro-2H-pyrazoio[3,4-b]pyridin-3-yl]-dipropylamine] |
| 99.3 to 104.9 | CCC(CC)Nc1c2c(nn1C)N(c1c(C)cc(C)cc1C)CCC2 [Example 9af, (1-Ethylpropyl)-[2-methyl-7-(2,4,6-trimethyl-phenyl)-4,5,6,7-tetrahydro-2H-pyrazolo[3,4-b]pyridin-3-yl]-amine] |
| 80.3 to 87.7 | Cc1cc(C)c(N2CCCc3c2nn(C)c3C(=O)N2CCc3ccccc3C2)c(C)c1 [Example 10b, (3,4-Dihydro-1H-isoquinolin-2-yl)-[2-methyl-7-(2,4,6-trimethyl-phenyl)-4,5,6,7-tetrahydro-2H-pyrazolo[3,4-b]pyridin-3-yl]-methanone] |
| 171.4 to 175.7 | Cc1cc(C)c(N2CCCc3c2nn(C)c3NC(=O)OC(C)(C)C)c(Cl)c1 [Example 8c, [7-(2-Chloro-4,6-dimethylphenyl)-2-methyl-4,5,6,7-tetrahydro-2H-pyrazolo[3,4-b]pyridin-3-yl]carbamic acid tert-butyl ester] |
| 96 to 98.1 | CCCC(CCC)c1c2c(nn1C)N(c1c(C)cc(C)cc1C)CCCC2 [Example 7d, 2-Methyl-3-(1-propylbutyl)-8-(2,4,6-trimethylphenyl)-2,4,5,6,7,8-hexahydro-1,2,8-triazaazulene] |
| 204 to 207.8 | CCOC(=O)Nc1c2c(nn1C)N(c1c(C)cc(C)cc1Cl)CCC2 [Example 8d, [7-(2-Chloro-4,6-dimethylphenyl)-2-methyl-4,5,6,7-tetrahydro-2H-pyrazolo[3,4-b]pyridin-3-yl]carbamic acid ethyl ester] |
| 90 to 91 | CCCN(CCC)c1c2c(nn1C)N(c1c(C)cc(C)cc1Cl)CCC2 [Example 9a, [7-(2-Chloro-4,6-dimethylphenyl)-2-methyl-4,5,6,7-tetrahydro-2H-pyrazolo[3,4-b]pyridin-3-yl]dipropylamine] |
| 133.8 to 135 | COCC(=O)Nc1c2c(nn1C)N(c1c(C)cc(C)cc1C)CCC2 [Example 10d, 2-Methoxy-N-[2-methyl-7-(2,4,6-trimethyl-phenyl)-4,5,6,7-tetrahydro-2H-pyrazolo[3,4-b]pyridin-3-yl]acetamide] |
| 100.1 to 104.4 | CCCC(COC)Nc1c2c(nn1C)N(c1c(C)cc(C)cc1C)CCC2 (stereo not drawn) [Example 9ak, (1-Methoxymethylbutyl)-[2-methyl-7-(2,4,6-trimethylphenyl)-4,5,6,7-tetrahydro-2H-pyrazolo[3,4-b]pyridin-3-yl]-amine] |
| 226 to 228 | CCC(=O)Nc1c2c(nn1C)N(c1c(C)cc(C)cc1C)CCC2 [Example 10c, N-[2-Methyl-7-(2,4,6-trimethylphenyl)-4,5,6,7-tetrahydro-2H-pyrazolo[3,4-b]pyridin-3-yl]propionamide] |
| 247.8 to 248.3 | Cc1cc(C)c(N2CCCc3c2nn(C)c3C(=O)O)c(Cl)c1 [Example 8a, 7-(2-Chloro-4,6-dimethylphenyl)-2-methyl-4,5,6,7-tetrahydro-2H-pyrazolo[3,4-b]pyridine-3-carboxylic acid] |
| 228.6 to 233.9 | Cc1cc(C)c(N2CCCc3c2nn(C)c3C(=O)O)c(C)c1 [Example 8b, 7-(2,4,6-Trimethylphenyl)-2-methyl-4,5,6,7-tetrahydro-2H-pyrazolo[3,4-b]pyridine-3-carboxylic acid] |
| 120.6 to 122 | CCCN(CC1CC1)C(=O)c1c2c(nn1C)N(c1c(C)cc(C)cc1Cl)CCC2 [Example 10a, 7-(2-Chloro-4,6-dimethylphenyl)-2-methyl-4,5,6,7-tetrahydro-2H-pyrazolo[3,4-b]pyridine-3-carboxylic acidcyclopropylmethylpropylamide] |
| 96.5 to 102.5 | CCC(COC)Nc1c2c(nn1C)N(c1c(C)cc(C)cc1C)CCC2 (stereo not drawn) [Example 9aj, (1-Methoxymethylpropyl)-[2-methyl-7-(2,4,6-trimethylphenyl)-4,5,6,7-tetrahydro-2H-pyrazolo[3,4-b]pyridin-3-yl]-amine] |
| 87.6 to 90.3 | CCCC(c1cccs1)c1c2c(nn1C)N(c1c(C)cc(C)cc1C)CCC2 (stereo not drawn) [Example 7c, 2-Methyl-3-(1-thiophen-2-ylbutyl)-7-(2,4,6-trimethylphenyl)-4,5,6,7-tetrahydro-2H-pyrazolo[3,4-b]pyridine] |
| 169.9 to 172.8 | COc1cccc(OC)c1-c1c2c(nn1C)N(c1c(C)cc(C)cc1C)CCC2 [Example 13b, 3-(2,6-Dimethoxyphenyl)-2-methyl-7-(2,4,6-trimethylphenyl)-4,5,6,7-tetrahydro-2H-pyrazolo[3,4-b]pyridine] |
